# Patent US4800199A, “3-[2-thiazoloamino]-8-oxo-7-substituted-5-thia-1-a zabicyclo-[4.2.0]oct-2-ene-2-carboxylic acid and salts thereof and diphenylmethyl esters thereof” (American Cyanamid Company, priority 1986, dated 1989)
# Assays:
# Assay in all cases: In vitro antibacterial activity, Mueller-Hinton agar dilution
# Assay type in all cases: cell-based
# Acinetobacter STFD 79-17 = conditions: STFD7917, read-out: Minimal Inhibitory Concentration
# From the text: (§1) The results of this test on representative compounds of this invention appear in Table I.
# Bacillus cereus LL No. 4 = conditions: LLNO.4, read-out: Minimal Inhibitory Concentration
# From the text: as §1
# [1] = system: Bacillus subtilis ATCC 6633; conditions: ATCC6633, read-out: Minimal Inhibitory Concentration
# From the text: as §1
# Candida albicans CA 300 = conditions: CA300, read-out: Minimal Inhibitory Concentration
# From the text: as §1
# [2] = system: Citrobacter freundii K81-28; conditions: K8128, read-out: Minimal Inhibitory Concentration
# From the text: as §1
# [3] = system: Enterobacter cloacae K79-16; conditions: K7916, read-out: Minimal Inhibitory Concentration
# From the text: as §1
# Enterococcus OSU 75-1 = conditions: OSU751, read-out: Minimal Inhibitory Concentration
# From the text: as §1
# Enterococcus SM 77-15 = conditions: SM7715, read-out: Minimal Inhibitory Concentration
# From the text: as §1
# Escherichia coli 311 = conditions: read-out: Minimal Inhibitory Concentration
# From the text: as §1
# [4] = system: Escherichia coli ATCC 25922; conditions: ATCC25922, read-out: Minimal Inhibitory Concentration
# From the text: as §1
# Klebsiella pneumoniae AD = conditions: read-out: Minimal Inhibitory Concentration
# From the text: as §1
# [5] = system: Micrococcus lutea PC 1001; conditions: PC1001, read-out: Minimal Inhibitory Concentration
# From the text: as §1
# [6] = system: Mycobacterium smegmatis ATCC 607; conditions: Mycolicibacterium smegmatis, ATCC607, read-out: Minimal Inhibitory Concentration
# From the text: as §1
# Proteus morganii K79-25 = conditions: Morganella morganii, K7925, read-out: Minimal Inhibitory Concentration
# From the text: as §1
# [7] = system: Pseudomonas aeruginosa 12-4-4; conditions: 1244, read-out: Minimal Inhibitory Concentration
# From the text: as §1
# [8] = system: Pseudomonas aeruginosa ATCC 27853; conditions: ATCC27853, read-out: Minimal Inhibitory Concentration
# From the text: as §1
# Saccharomyces Y 15 = conditions: Y15, read-out: Minimal Inhibitory Concentration
# From the text: as §1
# Salmonella QHC 77-3 = conditions: QHC773, read-out: Minimal Inhibitory Concentration
# From the text: as §1
# Serratia Tul 78-15 = conditions: TUL7815, read-out: Minimal Inhibitory Concentration
# From the text: as §1
# [9] = system: Staphylococcus aureus ATCC 25923; conditions: ATCC25923, read-out: Minimal Inhibitory Concentration
# From the text: as §1
# [10] = system: Staphylococcus aureus LL No. 14; conditions: LLNO.14, read-out: Minimal Inhibitory Concentration
# From the text: as §1
# [11] = system: Staphylococcus aureus LL No. 27; conditions: LLNO.27, read-out: Minimal Inhibitory Concentration
# From the text: as §1
# [12] = system: Staphylococcus aureus LL No. 45; conditions: LLNO.45, read-out: Minimal Inhibitory Concentration
# From the text: as §1
# [13] = system: Staphylococcus aureus Smith; conditions: read-out: Minimal Inhibitory Concentration
# From the text: as §1
# [14] = system: Staphylococcus epidermidis ATCC 12228; conditions: ATCC12228, read-out: Minimal Inhibitory Concentration
# From the text: as §1
# [15] = system: Staphylococcus epidermidis CMC 83-56; conditions: CMC8356, read-out: Minimal Inhibitory Concentration
# From the text: as §1
# [16] = system: Streptococcus faecalis ATCC 29212; conditions: Enterococcus faecalis, ATCC29212, read-out: Minimal Inhibitory Concentration
# From the text: as §1
# [17] = system: Streptococcus mutans ATCC 27352-1; conditions: ATCC27352, read-out: Minimal Inhibitory Concentration
# From the text: as §1
# [18] = system: Streptococcus mutans BHI (b); conditions: read-out: Minimal Inhibitory Concentration
# From the text: as §1
# [19] = system: Streptococcus sanguis G-9B (a); conditions: read-out: Minimal Inhibitory Concentration
# From the text: as §1
Compound,MIC (Acinetobacter STFD 79-17) [µg/mL],MIC (Bacillus cereus LL No. 4) [µg/mL],MIC [1] [µg/mL],MIC (Candida albicans CA 300) [µg/mL],MIC [2] [µg/mL],MIC [3] [µg/mL],MIC (Enterococcus OSU 75-1) [µg/mL],MIC (Enterococcus SM 77-15) [µg/mL],MIC (Escherichia coli 311) [µg/mL],MIC [4] [µg/mL],MIC (Klebsiella pneumoniae AD) [µg/mL],MIC [5] [µg/mL],MIC [6] [µg/mL],MIC (Proteus morganii K79-25) [µg/mL],MIC [7] [µg/mL],MIC [8] [µg/mL],MIC (Saccharomyces Y 15) [µg/mL],MIC (Salmonella QHC 77-3) [µg/mL],MIC (Serratia Tul 78-15) [µg/mL],MIC [9] [µg/mL],other results
"CC(=O)OCC1=C(C(=O)O)N2C(=O)[C@@H](Nc3nc(-c4ccccc4)cs3)[C@H]2SC1 [Example 3, (6R-trans)-3-[(Acetyloxy)methyl]-8-oxo-7-[(4-phenyl-2-thiazolyl)amino]-5-thia-1-azabicyclo[4.2.0]oct-2-ene-2-carboxylic acid]",> 512,128,8,> 512,> 512,> 512,256,256,> 512,> 512,> 512,8,256,> 512,> 512,> 512,256,> 512,> 512,8,MIC [10]: 4 µg/mL; MIC [11]: 16 µg/mL; MIC [12]: 4 µg/mL; MIC [13]: 8 µg/mL; MIC [14]: 16 µg/mL; MIC [15]: 8 µg/mL; MIC [16]: 256 µg/mL; MIC [17]: 8 µg/mL; MIC [18]: 0.5 µg/mL; MIC [19]: 1 µg/mL
CCOC(=O)c1csc(N[C@@H]2C(=O)N3C(C(=O)O)=C(COC(C)=O)CS[C@H]23)n1 [Example 2],> 512,64,4,> 512,512,> 512,128,128,512,> 512,512,4,128,> 512,> 512,> 512,128,> 512,> 512,1,MIC [10]: 1 µg/mL; MIC [11]: 4 µg/mL; MIC [12]: 1 µg/mL; MIC [13]: 1 µg/mL; MIC [14]: 0.5 µg/mL; MIC [15]: 0.5 µg/mL; MIC [16]: 128 µg/mL; MIC [17]: ≤ 0.25 µg/mL; MIC [18]: ≤ 0.25 µg/mL; MIC [19]: 4 µg/mL
